The supplement of paper PMC13380429

Tests used:
Vero E6 [1] = test: cell viability relative to DMSO; higher = less toxic; settings: 72 h
HepG2 [2] = test: as above; settings: 72 h
Calu-3 [3] = test: as above; settings: 72 h
Caco-2 [4] = test: as above; settings: 72 h
U2OS [5] = test: as above; settings: 72 h
HepG2 [6] = test: relative viability EC50 (midpoint between 100% and the lowest measured viability); higher = less toxic; settings: 72 h
Calu-3 [7] = test: as above; settings: 72 h
Caco-2 [8] = test: as above; settings: 72 h
[9] = test system: A549-ACE2 infected with SARS-CoV-2; test: SARS-CoV-2 infection rate relative to DMSO; higher = more infection; settings: 24 h
[10] = test system: A549-ACE2 infected with SARS-CoV-2; test: morphology score (similarity to uninfected cells); higher = more like uninfected cells; settings: 24 h
A549-ACE2 [11] = test: phospholipidosis EC50; higher = less potent phospholipidosis inducer
Vero E6 [12] = test: drug sensitivity score (DSS) for viability; higher = more toxic; extreme values may be limits of the assay; settings: 72 h
HepG2 [13] = test: as above; settings: 72 h
Calu-3 [14] = test: as above; settings: 72 h
Caco-2 [15] = test: as above; settings: 72 h
U2OS [16] = test: as above; settings: 72 h
[17] = test system: A549-ACE2 infected with SARS-CoV-2; test: cell count relative to DMSO; higher = less toxic; settings: 24 h
A549-ACE2 [18] = test: drug-induced phospholipidosis relative to tamoxifen; higher = more phospholipidosis
Vero E6 [19] = test: relative viability EC50 (midpoint between 100% and the lowest measured viability); higher = less toxic; settings: 72 h
U2OS [20] = test: as above; settings: 72 h

NC1(Cc2ccc(Cl)cc2)CCN(c2ncnc3[nH]ccc23)CC1
Settings | SARS-CoV-2 infection rate [%] | cell count [%] | cell viability [%] | morphology score | phospholipidosis EC50 [µM]
A549-ACE2 [11], 24 h | – | – | – | – | 5.25
A549-ACE2 [11], 48 h | – | – | – | – | 7.16
A549-ACE2 [11], 72 h | – | – | – | – | 8.44
Caco-2 [4], 1 nM | – | – | 93.7 | – | –
Caco-2 [4], 10 nM | – | – | 109 | – | –
Caco-2 [4], 100 nM | – | – | 95.4 | – | –
Caco-2 [4], 1000 nM | – | – | 98.2 | – | –
Caco-2 [4], 10000 nM | – | – | 81.7 | – | –
Calu-3 [3], 1 nM | – | – | 95.4 | – | –
Calu-3 [3], 10 nM | – | – | 99.9 | – | –
Calu-3 [3], 100 nM | – | – | 100 | – | –
Calu-3 [3], 1000 nM | – | – | 105 | – | –
Calu-3 [3], 10000 nM | – | – | 77.5 | – | –
HepG2 [2], 1 nM | – | – | 100 | – | –
HepG2 [2], 10 nM | – | – | 102 | – | –
HepG2 [2], 100 nM | – | – | 94.5 | – | –
HepG2 [2], 1000 nM | – | – | 91.1 | – | –
HepG2 [2], 10000 nM | – | – | 26.3 | – | –
U2OS [5], 1 nM | – | – | 96.9 | – | –
U2OS [5], 10 nM | – | – | 101 | – | –
U2OS [5], 100 nM | – | – | 93 | – | –
U2OS [5], 1000 nM | – | – | 95 | – | –
U2OS [5], 10000 nM | – | – | 52.6 | – | –
Vero E6 [1], 1 nM | – | – | 97.6 | – | –
Vero E6 [1], 10 nM | – | – | 100 | – | –
Vero E6 [1], 100 nM | – | – | 96.8 | – | –
Vero E6 [1], 1000 nM | – | – | 88.5 | – | –
Vero E6 [1], 10000 nM | – | – | 65.3 | – | –
[9], 0.1 µM | 99 | – | – | – | –
[9], 0.3 µM | 106 | – | – | – | –
[9], 1 µM | 104 | – | – | – | –
[9], 3 µM | 85 | – | – | – | –
[10], 0.1 µM | – | – | – | 0.13 | –
[10], 0.3 µM | – | – | – | -0.05 | –
[10], 1 µM | – | – | – | 0.15 | –
[10], 3 µM | – | – | – | 0.48 | –
[17], 0.1 µM | – | 104 | – | – | –
[17], 0.3 µM | – | 105 | – | – | –
[17], 1 µM | – | 104 | – | – | –
[17], 3 µM | – | 105 | – | – | –

Settings | drug sensitivity score | relative viability EC50 [µM]
Caco-2 [8] | – | > 10
Caco-2 [15] | 0.7 | –
Calu-3 [7] | – | > 10
Calu-3 [14] | 0.5 | –
HepG2 [6] | – | 2.18
HepG2 [13] | 5.6 | –
U2OS [16] | 3.3 | –
Vero E6 [12] | 3 | –

drug-induced phospholipidosis [%], A549-ACE2 [18]
Settings | 0.3 µM | 0.833333 µM | 3.33333 µM | 6.66667 µM | 10 µM | 30 µM
24 h | 2.53 | 6.69 | 24.4 | 64.2 | 86.2 | 95.1
48 h | 0.01 | -2.52 | 9.67 | 37.5 | 65.9 | 86.8
72 h | -2.31 | -5.85 | 5.48 | 20.6 | 47.9 | 73.3

CC(C)n1nc(C#Cc2ccccc2)c2c(N)ncnc21 [SPP86]
Settings | SARS-CoV-2 infection rate [%] | cell count [%] | cell viability [%] | morphology score | phospholipidosis EC50 [µM]
A549-ACE2 [11], 24 h | – | – | – | – | 15.1
Caco-2 [4], 1 nM | – | – | 98.1 | – | –
Caco-2 [4], 10 nM | – | – | 98.9 | – | –
Caco-2 [4], 100 nM | – | – | 88.9 | – | –
Caco-2 [4], 1000 nM | – | – | 67.7 | – | –
Caco-2 [4], 10000 nM | – | – | 56.5 | – | –
Calu-3 [3], 1 nM | – | – | 107 | – | –
Calu-3 [3], 10 nM | – | – | 104 | – | –
Calu-3 [3], 100 nM | – | – | 99.7 | – | –
Calu-3 [3], 1000 nM | – | – | 92.7 | – | –
Calu-3 [3], 10000 nM | – | – | 62.8 | – | –
HepG2 [2], 1 nM | – | – | 102 | – | –
HepG2 [2], 10 nM | – | – | 106 | – | –
HepG2 [2], 100 nM | – | – | 103 | – | –
HepG2 [2], 1000 nM | – | – | 60.9 | – | –
HepG2 [2], 10000 nM | – | – | 34.4 | – | –
U2OS [5], 1 nM | – | – | 106 | – | –
U2OS [5], 10 nM | – | – | 109 | – | –
U2OS [5], 100 nM | – | – | 107 | – | –
U2OS [5], 1000 nM | – | – | 107 | – | –
U2OS [5], 10000 nM | – | – | 75.7 | – | –
Vero E6 [1], 1 nM | – | – | 99.7 | – | –
Vero E6 [1], 10 nM | – | – | 99.7 | – | –
Vero E6 [1], 100 nM | – | – | 100 | – | –
Vero E6 [1], 1000 nM | – | – | 98.5 | – | –
Vero E6 [1], 10000 nM | – | – | 81.3 | – | –
[9], 0.3 µM | 90 | – | – | – | –
[9], 3 µM | 89 | – | – | – | –
[9], 10 µM | 53 | – | – | – | –
[9], 30 µM | 32 | – | – | – | –
[10], 0.3 µM | – | – | – | 0.34 | –
[10], 3 µM | – | – | – | 0.41 | –
[10], 10 µM | – | – | – | 0.54 | –
[10], 30 µM | – | – | – | 0.29 | –
[17], 0.3 µM | – | 103 | – | – | –
[17], 3 µM | – | 103 | – | – | –
[17], 10 µM | – | 106 | – | – | –
[17], 30 µM | – | 84 | – | – | –

Settings | drug sensitivity score | relative viability EC50 [µM]
Caco-2 [15] | 6.9 | –
Calu-3 [14] | 3 | –
HepG2 [6] | – | 0.858
HepG2 [13] | 8.3 | –
U2OS [16] | 0.6 | –
U2OS [20] | – | > 10
Vero E6 [12] | 0.7 | –
Vero E6 [19] | – | > 10

drug-induced phospholipidosis [%], A549-ACE2 [18]
Settings | 0.3 µM | 0.833333 µM | 3.33333 µM | 6.66667 µM | 10 µM | 30 µM
24 h | 3.29 | 3.69 | 12.6 | 41.4 | 63.6 | 142
48 h | 3.96 | 2.69 | 12.1 | 21.7 | 35.6 | –
72 h | 6.41 | 0.816 | 8.31 | 18.5 | 28.1 | –
